In article PMC10893631, “Receptor-based pharmacophore modeling, molecular docking, synthesis and biological evaluation of novel VEGFR-2, FGFR-1, and BRAF multi-kinase inhibitors” (BMC Chemistry, 2024):
Where two headings read alike, the source gives them in different places.

Key:
Format in all cases: cell-based, human
[1] = tested on: NCI panel of 60 tumor cell lines; test: NCI SRB growth inhibition, whole panel mean (single dose 10 µM / five-dose); settings: Homo sapiens
Protocol: Screening of cytotoxic activity against a panel of sixty human tumor cell lines The selected compounds by NCI were evaluated for their anticancer activity in a two- stage process. […] Then, the output from the single dose screen is reported as a mean graph. […] Assay protocol. […] For a typical screening experiment, cells are inoculated into 96 well microtiter plates in 100 µL at plating densities ranging from 5000 to 40,000 cells/well depending on the doubling time of individual cell lines. […] After 24 h, two plates of each cell line are fixed in situ with TCA, to represent a measurement of the cell population for each cell line at the time of drug addition (Tz). The experimental drugs are solubilized in dimethyl sulfoxide at 400-fold the desired final maximum test concentration and stored frozen prior to use. At the time of drug addition, an aliquot of frozen concentrate is thawed and diluted to twice the desired final maximum test concentration with complete medium containing 50 µg/mL gentamicin. Additional four, 10-fold or ½ log serial dilutions are made to provide a total of five drug concentrations plus control. Aliquots of 100 mL of these different drug dilutions are added to the appropriate microtiter wells already containing […] of medium, resulting in the required final drug concentrations. […] For adherent cells, the assay is terminated by the addition of cold TCA. […] The supernatant is discarded, and the plates are washed five times with tap water and air dried. Sulforhodamine B (SRB) solution ([…]) at 0.4% (w/v) in 1% acetic acid is added to each well, and plates are incubated for 10 min at room temperature. After staining, unbound dye is removed by washing five times with 1% acetic acid and the plates are air dried. […] Using the seven absorbance measurements [time zero, (Tz), control growth, (C), and test growth in the presence of drug at the five concentration levels (Ti)], the percentage growth is calculated at each of the drug concentrations levels. Percentage growth inhibition is calculated as: [(Ti Tz)/(C–Tz)] x 100 for concentrations for which Ti>/=Tz and [(Ti-Tz)/Tz] x 100 for concentrations for which Ti < Tz. Three dose response parameters are calculated for each experimental agent. […] The drug concentration resulting in total growth inhibition (TGI) is calculated from Ti = Tz. […] Values are calculated for each of these three parameters if the level of activity is reached; however, if the effect is not reached or is exceeded, the value for that parameter is expressed as greater or less than the maximum or minimum concentration tested.

MCF7 = test: NCI SRB growth inhibition (single dose 10 µM / five-dose); settings: Homo sapiens; for inhibition at 10 µM: MCF7 (Breast cancer), read-out: GI%
How it was run: (§1)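 After a 24 h pre-incubation, cells received drug at five serially diluted concentrations; two untreated plates per line were TCA-fixed at drug addition as Tz. Adherent plates were fixed with cold TCA, stained with SRB and washed with 1% acetic acid.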

A549/ATCC = test: as above; settings: Homo sapiens; for inhibition at 10 µM: A549/ATCC (Non-small cell lung cancer), read-out: GI%
How it was run: as §1

SF-539 = test: as above; settings: Homo sapiens; for inhibition at 10 µM: SF-539 (CNS cancer), read-out: GI%
How it was run: as §1

MDA-MB-468 = test: as above; settings: Homo sapiens; for inhibition at 10 µM: MDA-MB-468 (Breast cancer), read-out: GI%
How it was run: as §1

UACC-257 = test: as above; settings: Homo sapiens; for inhibition at 10 µM: UACC-257 (Melanoma), read-out: GI%
How it was run: as §1

SW-620 = test: as above; settings: Homo sapiens; for inhibition at 10 µM: SW-620 (Colon cancer), read-out: GI%
How it was run: as §1

CAKI-1 = test: as above; settings: Homo sapiens; for inhibition at 10 µM: CAKI-1 (Renal cancer), read-out: GI%
How it was run: as §1

HCT-116 = test: as above; settings: Homo sapiens, HCT-116; for inhibition at 10 µM: read-out: GI%
How it was run: as §1

HS 578 T = test: as above; settings: Homo sapiens; for inhibition at 10 µM: HS 578 T (Breast cancer), read-out: GI%
How it was run: as §1

COLO 205 = test: as above; settings: Homo sapiens
How it was run: as §1

BT-549 = test: as above; settings: Homo sapiens; for inhibition at 10 µM: BT-549 (Breast cancer), read-out: GI%
How it was run: as §1

HL-60(TB) = test: as above; settings: Homo sapiens; for inhibition at 10 µM: HL-60(TB) (Leukemia), read-out: GI%
How it was run: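 Two-stage NCI-60 screen: single-dose test first, then five-dose testing. Growth is scored by sulforhodamine B staining of TCA-fixed cells relative to a time-zero plate, and TGI is taken where Ti = Tz.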

OVCAR-5 = test: as above; settings: Homo sapiens; for inhibition at 10 µM: OVCAR-5 (Ovarian cancer), read-out: GI%
How it was run: as §1

TK-10 = test: as above; settings: Homo sapiens; for inhibition at 10 µM: TK-10 (Renal cancer), read-out: GI%
How it was run: as §1

786–0 = test: as above; settings: Homo sapiens; for inhibition at 10 µM: 786–0 (Renal cancer), read-out: GI%
How it was run: as §1

HCC-2998 = test: as above; settings: Homo sapiens; for inhibition at 10 µM: HCC-2998 (Colon cancer), read-out: GI%
How it was run: as §1

UACC-62 = test: as above; settings: Homo sapiens; for inhibition at 10 µM: UACC-62 (Melanoma), read-out: GI%
How it was run: as §1

SR = test: as above; settings: Homo sapiens; for inhibition at 10 µM: SR (Leukemia), read-out: GI%
How it was run: as §1

OVCAR-8 = test: as above; settings: Homo sapiens; for inhibition at 10 µM: OVCAR-8 (Ovarian cancer), read-out: GI%
How it was run: as §1

MALME-3 M = test: as above; settings: Homo sapiens; for inhibition at 10 µM: MALME-3 M (Melanoma), read-out: GI%
How it was run: as §1

MOLT-4 = test: as above; settings: Homo sapiens; for inhibition at 10 µM: MOLT-4 (Leukemia), read-out: GI%
How it was run: as §1

UO-31 = test: as above; settings: Homo sapiens; for inhibition at 10 µM: UO-31 (Renal cancer), read-out: GI%
How it was run: as §1

[2] = mean over NCI 60 cell lines, > 100% = lethal effect, read-out: mean growth inhibition % (GI%)
[3] = mean over NCI panel of 60 tumor cell lines, read-out: Mean growth inhibition %

COc1cccc(C=NNC(=O)c2ccc3[nH]c(-c4ccc(Cl)cc4)nc3c2)c1 [8q, 2-(4-Chlorophenyl)-N'-(3-methoxybenzylidene)-1H-benzo[d]imidazole-5-carbohydrazide]
inhibition at 10 µM [1, 2]: > 100%
GI50 ([1]; mean over NCI cancer cell lines, five-dose): 5.4 µM
inhibition at 10 µM [1, 3]: > 100%
inhibition at 10 µM (MCF7): > 100%
GI50 (MCF7; MCF7, Breast cancer, five-dose): 2.57 µM
inhibition at 10 µM (A549/ATCC): > 100%
GI50 (A549/ATCC; A549/ATCC, Non-small cell lung cancer, five-dose): 3.22 µM
inhibition at 10 µM (SF-539): > 100%
GI50 (SF-539; SF-539, CNS cancer, five-dose): 7.14 µM
inhibition at 10 µM (MDA-MB-468): > 100%
GI50 (MDA-MB-468; MDA-MB-468, Breast cancer, five-dose): 2.97 µM
inhibition at 10 µM (UACC-257): > 100%
GI50 (UACC-257; UACC-257, Melanoma, five-dose): 4.8 µM
inhibition at 10 µM (SW-620): > 100%
GI50 (SW-620; SW-620, Colon cancer, five-dose): 2.93 µM
inhibition at 10 µM (CAKI-1): > 100%
GI50 (CAKI-1; CAKI-1, Renal cancer, five-dose): 3.84 µM
GI50 (HCT-116): 3.06 µM
inhibition at 10 µM (HCT-116): > 100%
inhibition at 10 µM (HS 578 T): > 100%
GI50 (HS 578 T; HS 578 T, Breast cancer, five-dose): 2.71 µM
inhibition at 10 µM (COLO 205; COLO 205 (Colon cancer), 10 µM, read-out: GI%): > 100%
GI50 (COLO 205; COLO 205, Colon cancer, five-dose): 4.02 µM
inhibition at 10 µM (BT-549): 6.97%
GI50 (BT-549; BT-549, Breast cancer, five-dose): 10.1 µM
inhibition at 10 µM (HL-60(TB)): 50.7%
GI50 (HL-60(TB); HL-60(TB), Leukemia, five-dose): 19.5 µM
inhibition at 10 µM (OVCAR-5): > 100%
GI50 (OVCAR-5; OVCAR-5, Ovarian cancer, five-dose): 5.35 µM
inhibition at 10 µM (TK-10): > 100%
GI50 (TK-10; TK-10, Renal cancer, five-dose): 23.9 µM
inhibition at 10 µM (786–0): > 100%
GI50 (786–0; 786–0, Renal cancer, five-dose): 1.85 µM
inhibition at 10 µM (HCC-2998): 79.6%
GI50 (HCC-2998; HCC-2998, Colon cancer, five-dose): 4.42 µM
inhibition at 10 µM (UACC-62): > 100%
GI50 (UACC-62; UACC-62, Melanoma, five-dose): 4.92 µM
inhibition at 10 µM (SR): > 100%
GI50 (SR; SR, Leukemia, five-dose): 4.15 µM
inhibition at 10 µM (OVCAR-8): > 100%
GI50 (OVCAR-8; OVCAR-8, Ovarian cancer, five-dose): 2.69 µM
inhibition at 10 µM (MALME-3 M): > 100%
GI50 (MALME-3 M; MALME-3 M, Melanoma, five-dose): 1.54 µM
inhibition at 10 µM (MOLT-4): 71.6%
GI50 (MOLT-4; MOLT-4, Leukemia, five-dose): 5.96 µM
inhibition at 10 µM (UO-31): 81.7%
GI50 (UO-31; UO-31, Renal cancer, five-dose): 3.46 µM

COc1ccc(OC)c(C=NNC(=O)c2ccc3[nH]c(-c4ccccc4)nc3c2)c1 [8f, N'-(2,5-Dimethoxybenzylidene)-2-phenyl-1H-benzo[d]imidazole-5-carbohydrazide]
inhibition at 10 µM [1, 2]: 33.7%
inhibition at 10 µM [1, 3]: 33.7%
inhibition at 10 µM (MCF7): 54.1%
inhibition at 10 µM (A549/ATCC): 17.2%
inhibition at 10 µM (SF-539): 36.9%
inhibition at 10 µM (MDA-MB-468): 24.7%
inhibition at 10 µM (UACC-257): < 5%
inhibition at 10 µM (SW-620): 30.3%
inhibition at 10 µM (CAKI-1): 41.5%
inhibition at 10 µM (HCT-116): 52.5%
inhibition at 10 µM (HS 578 T): 49.9%
inhibition at 10 µM (BT-549): 38.2%
inhibition at 10 µM (HL-60(TB)): 36.3%
inhibition at 10 µM (OVCAR-5): < 5%
inhibition at 10 µM (TK-10): 19%
inhibition at 10 µM (786–0): 18.6%
inhibition at 10 µM (HCC-2998): 8.92%
inhibition at 10 µM (UACC-62): 35.5%
inhibition at 10 µM (SR): 36.3%
inhibition at 10 µM (OVCAR-8): 52.6%
inhibition at 10 µM (MALME-3 M): 40.5%
inhibition at 10 µM (MOLT-4): 49.5%
inhibition at 10 µM (UO-31): 54%

COc1ccc(C=NNC(=O)c2ccc3[nH]c(-c4ccc(Cl)cc4)nc3c2)cc1O [8s, 2-(4-Chlorophenyl)-N'-(3-hydroxy-4-methoxybenzylidene)-1H-benzo[d]imidazole-5-carbohydrazide]
inhibition at 10 µM [1, 2]: 49.5%
inhibition at 10 µM [1, 3]: 49.5%
inhibition at 10 µM (MCF7): 84.9%
inhibition at 10 µM (A549/ATCC): 7.66%
inhibition at 10 µM (SF-539): 47.2%
inhibition at 10 µM (MDA-MB-468): 88.7%
inhibition at 10 µM (UACC-257): 24.6%
inhibition at 10 µM (SW-620): 69.6%
inhibition at 10 µM (CAKI-1): 18.5%
inhibition at 10 µM (HCT-116): 69.5%
inhibition at 10 µM (HS 578 T): 86.9%
inhibition at 10 µM (BT-549): 42.9%
inhibition at 10 µM (HL-60(TB)): 45.3%
inhibition at 10 µM (OVCAR-5): < 5%
inhibition at 10 µM (TK-10): < 5%
inhibition at 10 µM (786–0): 52%
inhibition at 10 µM (HCC-2998): 86.8%
inhibition at 10 µM (UACC-62): 37.5%
inhibition at 10 µM (SR): 77.2%
inhibition at 10 µM (OVCAR-8): 43.2%
inhibition at 10 µM (MALME-3 M): > 100%
inhibition at 10 µM (MOLT-4): 83.7%
inhibition at 10 µM (UO-31): 8.7%

COc1cc(C=NNC(=O)c2ccc3[nH]c(-c4ccccc4)nc3c2)cc(OC)c1OC [8g, 2-Phenyl-N'-(3,4,5-trimethoxybenzylidene)-1H-benzo[d]imidazole-5-carbohydrazide]
inhibition at 10 µM [1, 2]: 36%
inhibition at 10 µM [1, 3]: 36%
inhibition at 10 µM (MCF7): 86%
inhibition at 10 µM (A549/ATCC): 29.3%
inhibition at 10 µM (SF-539): 49.8%
inhibition at 10 µM (MDA-MB-468): 39.2%
inhibition at 10 µM (UACC-257): 54.3%
inhibition at 10 µM (SW-620): 37.9%
inhibition at 10 µM (CAKI-1): 49.7%
inhibition at 10 µM (HCT-116): 41.6%
inhibition at 10 µM (HS 578 T): 51%
inhibition at 10 µM (BT-549): 35.4%
inhibition at 10 µM (HL-60(TB)): 17.1%
inhibition at 10 µM (OVCAR-5): < 5%
inhibition at 10 µM (TK-10): 6.66%
inhibition at 10 µM (786–0): 27.8%
inhibition at 10 µM (HCC-2998): 44.3%
inhibition at 10 µM (UACC-62): 70.4%
inhibition at 10 µM (SR): 17.6%
inhibition at 10 µM (OVCAR-8): 48.7%
inhibition at 10 µM (MALME-3 M): 73.6%
inhibition at 10 µM (MOLT-4): 21.2%
inhibition at 10 µM (UO-31): 45.5%
